Patent publication US20020137929A1, “1 - (3-heterocyclylphenyl) isothiourea, -isourea, -guanidine and -amidine herbicidal agents” (Intellectual Property Department, BASF Aktiengesellschaft, priority 1998, published 2002)

How the values were obtained:
AMBEL (Ragweed, Common) = test: Postemergence herbicidal evaluation; assay type: in vivo, Ambrosia artemisifolia; conditions: postemergence
Summary of the method: (§1)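 First, seedlings were raised for around two weeks. Next, test material in 50/50 acetone/water containing 0.5% TWEEN 20 was sprayed through a nozzle at 40 psi, equivalent to about 0.0156–0.500 kg/ha. Finally, after 4–5 weeks in the greenhouse, plants were rated 0–9.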

CASOB (Sicklepod) [1] = test: Postemergence herbicidal evaluation; assay type: in vivo, Cassia obtusifolia; conditions: postemergence
Summary of the method: as §1

[2] = test system: CHEAL (Lambsquarters, Common); test: Postemergence herbicidal evaluation; assay type: in vivo, Chenopodium album; conditions: postemergence
Summary of the method: as §1

GALAP (Galium) [3] = test: Postemergence herbicidal evaluation; assay type: in vivo, Galium aparine; conditions: postemergence
Summary of the method: as §1

ECHCG (Barnyardgrass) = test: Postemergence herbicidal evaluation; assay type: in vivo, Echinochloa crus-galli; conditions: postemergence
Summary of the method: as §1

SETVI (Foxtail, Green) = test: Postemergence herbicidal evaluation; assay type: in vivo, Setaria viridis; conditions: postemergence
Summary of the method: as §1

[4] = test system: GLXMAW (Soybean, Williams); test: Postemergence herbicidal evaluation; assay type: in vivo, Glycine max, (L.) Merr. cv Williams; conditions: postemergence
Summary of the method: as §1

ORYSAT (Rice, Tebonnet) = test: Postemergence herbicidal evaluation; assay type: in vivo, Oryza sativa, (L.) Tebonnet; conditions: postemergence
Summary of the method: as §1

CASOB (Sicklepod) [5] = test: Preemergence herbicidal evaluation; assay type: in vivo, Cassia obtusifolia; conditions: rated 4-5 weeks after treatment
Summary of the method: (§2)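 Each species is sown separately in potting soil over roughly an inch of soil before any emergence. The soil surface then receives an aqueous acetone spray delivering about 0.0156 to 0.500 kg/ha of compound. After four to five weeks, injury is scored from 0 to 9 relative to a control.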

GALAP (Galium) [6] = test: Preemergence herbicidal evaluation; assay type: in vivo, Galium aparine; conditions: rated 4-5 weeks after treatment
Summary of the method: as §2

ZEAMX (Corn, Field) = test: Preemergence herbicidal evaluation; assay type: in vivo, Zea mays; conditions: rated 4-5 weeks after treatment
Summary of the method: as §2

CYPIR (Rice Flatsedge) = test: Preemergence weed control under flooded paddy conditions; assay type: in vivo, Cyperus iria; conditions: rated 3-4 weeks after treatment
Summary of the method: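 Ratings on a 0-9 visual scale cover stand, vigor, malformation, size, chlorosis and overall appearance relative to a control, taken three to four weeks post-treatment. Application was into flood water over freshly sown silt loam at roughly 0.0313 to 0.500 kg/ha.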

CYPSE (Flatsedge) [7] = test: as above; assay type: in vivo, Cyperus serotinus; conditions: rated 3-4 weeks after treatment
Summary of the method: (§3)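 Greenhouse paddy assay. Acetone/water (50/50 v/v) solutions dosed into flood water, equivalent to about 0.0313 to 0.500 kg/ha active ingredient, over seeds planted 0.5 cm deep in silt loam. Score: 0-9 visual, based on stand, vigor, malformation, size and chlorosis, 3 to 4 weeks after treatment.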

[8] = test system: SAGPY (Arrowhead (Pygmaea)); test: as above; assay type: in vivo, Sagittaria pygmaea; conditions: rated 3-4 weeks after treatment
Summary of the method: as §3

CYPSE (Flatsedge) [9] = test: Postemergence weed control under flooded paddy conditions; assay type: in vivo, Cyperus serotinus; conditions: postemergence weeds, 3-4 weeks after treatment
Summary of the method: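 Injury ratings (0–9 scale covering stand, vigor, malformation, size, chlorosis and overall appearance versus control) were made three to four weeks after treatment. Test material, about 0.0313 to 0.500 kg/ha a.i. in 50/50 v/v aqueous/acetone, was added to flood water 1.5 to 3 cm deep over 3 to 5 cm weeds and 1.5 to 2.5 leaf rice.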

CCOC(=O)CN1C(=O)C(CC(=O)O)S/C1=N/c1cc(-n2c(=O)cc(C(F)(F)F)n(C)c2=O)c(F)cc1Cl (centres unmarked) [Compound 16]
AMBEL herbicidal rating (AMBEL (Ragweed, Common); rate 0.0157 kg/ha): 9.0 | AMBEL herbicidal rating (AMBEL (Ragweed, Common); rate 0.0313 kg/ha): 8.0 | AMBEL herbicidal rating (AMBEL (Ragweed, Common); rate 0.0625 kg/ha): 9.0 | AMBEL herbicidal rating (AMBEL (Ragweed, Common); rate 0.1250 kg/ha): 9.0 | AMBEL herbicidal rating (AMBEL (Ragweed, Common); rate 0.2500 kg/ha): 9.0 | CASOB herbicidal rating (CASOB (Sicklepod) [1]; rate 0.0157 kg/ha): 9.0 | CASOB herbicidal rating (CASOB (Sicklepod) [1]; rate 0.0313 kg/ha): 6.2 | CASOB herbicidal rating (CASOB (Sicklepod) [1]; rate 0.0625 kg/ha): 8.0 | CASOB herbicidal rating (CASOB (Sicklepod) [1]; rate 0.1250 kg/ha): 9.0 | CASOB herbicidal rating (CASOB (Sicklepod) [1]; rate 0.2500 kg/ha): 9.0 | CHEAL herbicidal rating ([2]; rate 0.0157 kg/ha): 9.0 | CHEAL herbicidal rating ([2]; rate 0.0313 kg/ha): 8.2 | CHEAL herbicidal rating ([2]; rate 0.0625 kg/ha): 9.0 | CHEAL herbicidal rating ([2]; rate 0.1250 kg/ha): 9.0 | CHEAL herbicidal rating ([2]; rate 0.2500 kg/ha): 9.0 | GALAP herbicidal rating (GALAP (Galium) [3]; rate 0.0157 kg/ha): 5.0 | GALAP herbicidal rating (GALAP (Galium) [3]; rate 0.0313 kg/ha): 5.3 | GALAP herbicidal rating (GALAP (Galium) [3]; rate 0.0625 kg/ha): 6.8 | GALAP herbicidal rating (GALAP (Galium) [3]; rate 0.1250 kg/ha): 8.4 | GALAP herbicidal rating (GALAP (Galium) [3]; rate 0.2500 kg/ha): 9.0 | ECHCG herbicidal rating (ECHCG (Barnyardgrass); rate 0.0157 kg/ha): 3.0 | ECHCG herbicidal rating (ECHCG (Barnyardgrass); rate 0.0313 kg/ha): 8.8 | ECHCG herbicidal rating (ECHCG (Barnyardgrass); rate 0.0625 kg/ha): 9.0 | ECHCG herbicidal rating (ECHCG (Barnyardgrass); rate 0.1250 kg/ha): 9.0 | ECHCG herbicidal rating (ECHCG (Barnyardgrass); rate 0.2500 kg/ha): 9.0 | SETVI herbicidal rating (SETVI (Foxtail, Green); rate 0.0157 kg/ha): 9.0 | SETVI herbicidal rating (SETVI (Foxtail, Green); rate 0.0313 kg/ha): 7.8 | SETVI herbicidal rating (SETVI (Foxtail, Green); rate 0.0625 kg/ha): 9.0 | SETVI herbicidal rating (SETVI (Foxtail, Green); rate 0.1250 kg/ha): 9.0 | SETVI herbicidal rating (SETVI (Foxtail, Green); rate 0.2500 kg/ha): 9.0 | GLXMAW herbicidal rating ([4]; rate 0.0157 kg/ha): 9.0 | GLXMAW herbicidal rating ([4]; rate 0.0313 kg/ha): 8.6 | GLXMAW herbicidal rating ([4]; rate 0.0625 kg/ha): 8.9 | GLXMAW herbicidal rating ([4]; rate 0.1250 kg/ha): 9.0 | GLXMAW herbicidal rating ([4]; rate 0.2500 kg/ha): 9.0 | ORYSAT herbicidal rating (ORYSAT (Rice, Tebonnet); rate 0.0157 kg/ha): 3.0 | ORYSAT herbicidal rating (ORYSAT (Rice, Tebonnet); rate 0.0313 kg/ha): 4.2 | ORYSAT herbicidal rating (ORYSAT (Rice, Tebonnet); rate 0.0625 kg/ha): 5.7 | ORYSAT herbicidal rating (ORYSAT (Rice, Tebonnet); rate 0.1250 kg/ha): 7.3 | ORYSAT herbicidal rating (ORYSAT (Rice, Tebonnet); rate 0.2500 kg/ha): 7.5 | CASOB preemergence herbicidal rating (CASOB (Sicklepod) [5]; rate 0.0156 kg/ha): 0.3 | CASOB preemergence herbicidal rating (CASOB (Sicklepod) [5]; rate 0.0313 kg/ha): 0.6 | CASOB preemergence herbicidal rating (CASOB (Sicklepod) [5]; rate 0.0625 kg/ha): 2.7 | CASOB preemergence herbicidal rating (CASOB (Sicklepod) [5]; rate 0.1250 kg/ha): 5.3 | CASOB preemergence herbicidal rating (CASOB (Sicklepod) [5]; rate 0.2500 kg/ha): 8.3 | CASOB preemergence herbicidal rating (CASOB (Sicklepod) [5]; rate 0.5000 kg/ha): 9.0 | GALAP preemergence herbicidal rating (GALAP (Galium) [6]; rate 0.0156 kg/ha): 1.2 | GALAP preemergence herbicidal rating (GALAP (Galium) [6]; rate 0.0313 kg/ha): 2.0 | GALAP preemergence herbicidal rating (GALAP (Galium) [6]; rate 0.0625 kg/ha): 4.8 | GALAP preemergence herbicidal rating (GALAP (Galium) [6]; rate 0.1250 kg/ha): 6.4 | GALAP preemergence herbicidal rating (GALAP (Galium) [6]; rate 0.2500 kg/ha): 8.2 | GALAP preemergence herbicidal rating (GALAP (Galium) [6]; rate 0.5000 kg/ha): 9.0 | ZEAMX preemergence herbicidal rating (ZEAMX (Corn, Field); rate 0.0156 kg/ha): 0.1 | ZEAMX preemergence herbicidal rating (ZEAMX (Corn, Field); rate 0.0313 kg/ha): 0.6 | ZEAMX preemergence herbicidal rating (ZEAMX (Corn, Field); rate 0.0625 kg/ha): 1.4 | ZEAMX preemergence herbicidal rating (ZEAMX (Corn, Field); rate 0.1250 kg/ha): 1.8 | ZEAMX preemergence herbicidal rating (ZEAMX (Corn, Field); rate 0.2500 kg/ha): 3.7 | ZEAMX preemergence herbicidal rating (ZEAMX (Corn, Field); rate 0.5000 kg/ha): 6.0 | Herbicidal rating CYPIR (CYPIR (Rice Flatsedge); 0.0313 kg/ha): 0.0 | Herbicidal rating CYPIR (CYPIR (Rice Flatsedge); 0.0625 kg/ha): 0.0 | Herbicidal rating CYPIR (CYPIR (Rice Flatsedge); 0.1250 kg/ha): 4.0 | Herbicidal rating CYPIR (CYPIR (Rice Flatsedge); 0.2500 kg/ha): 9.0 | Herbicidal rating CYPSE (CYPSE (Flatsedge) [7]; 0.0313 kg/ha): 0.0 | Herbicidal rating CYPSE (CYPSE (Flatsedge) [7]; 0.0625 kg/ha): 0.0 | Herbicidal rating CYPSE (CYPSE (Flatsedge) [7]; 0.1250 kg/ha): 0.0 | Herbicidal rating CYPSE (CYPSE (Flatsedge) [7]; 0.2500 kg/ha): 0.0 | Herbicidal rating SAGPY ([8]; 0.0313 kg/ha): 0.0 | Herbicidal rating SAGPY ([8]; 0.0625 kg/ha): 0.0 | Herbicidal rating SAGPY ([8]; 0.1250 kg/ha): 0.0 | Herbicidal rating SAGPY ([8]; 0.2500 kg/ha): 0.0 | Herbicidal rating CYPSE (CYPSE (Flatsedge) [9]; rate 0.0313 kg/ha): 0.0 | Herbicidal rating CYPSE (CYPSE (Flatsedge) [9]; rate 0.0625 kg/ha): 0.0 | Herbicidal rating CYPSE (CYPSE (Flatsedge) [9]; rate 0.1250 kg/ha): 0.0 | Herbicidal rating CYPSE (CYPSE (Flatsedge) [9]; rate 0.2500 kg/ha): 0.0
